Measurements: US12377076B2, “Compounds for treating lymphoma or a T-cell malignant disease” (Purdue Pharma L.P., priority 2018, dated 2025)
Several values for one entry are separate records, joined by “and”; a condition that tells them apart may be missing. Identical values can stand only once. Entries after “also recorded” stand apart in the source; their conditions may differ.

What was measured:
[1] = test system: patients with relapsed/refractory hematologic malignancies; assay: Phase 1 dose escalation trial: safety, TEAEs, DLTs, MTD; format: in vivo, human
Experimental: A phase 1 trial was carried out including a dose escalation study to investigate the safety, pharmacokinetic (PK) profiles and efficacy of tinostamustine (EDO-S101) in relapsed/refractory hematologic malignancies.
The patient had relapsed/refractory hematologic malignancies for which there are no available therapies.
The assessment of dose-limiting toxicities (DLTs) was based on cycle 1 events alone. Toxicities were assessed regarding type and severity using the National Cancer Institute (NCI) Common Terminology Criteria for Adverse Events (CTCAE) version 4.03, June 2010. Toxicity data were collected for all patients throughout their time on study. Infusion site reactions were assessed using the Phlebitis Scale developed by the Infusion Nurses Society (2011).
DLTs, which were at least possibly related to study drug, were defined as: • Any Grade 3 or 4 non-hematologic toxicity (excluding alopecia and easily correctable electrolyte abnormalities); • Nausea, vomiting or diarrhoea that persists beyond 10 days despite aggressive symptomatic treatment; • Grade 4 neutropenia or thrombocytopenia lasting for 7 days or more; • Any grade 2 or more toxicity, but persist for over 3 weeks; and • Any toxicity resulting in a delay of the next dose administration (cycle 2 day 1≥14).
To ensure patients' safety, the stopping rules were implemented to the dose escalation stage of the study.
Other safety assessments included physical examinations, Eastern Cooperative Oncology Group (ECOG) performance status determinations, electrocardiograms (ECGs), pregnancy testing for women of childbearing potential, documentation of treatment-emergent adverse events (TEAEs), clinical laboratory evaluations including haematology, blood chemistry and urinalysis, vital signs, and documentation of concomitant medication usage.
If there is no DLT observed in any of these subjects, the trial proceeds to enroll additional subjects into the next higher dose cohort. If one subject develops a DLT at a specific dose, an additional three subjects are enrolled into that same dose cohort.

lymphoma = conditions: in vitro and in vivo models; cited from earlier work
patients with HL = assay: Tumour assessment: response to treatment, patients with HL; format: in vivo, human
Text: Response to treatment included evaluation of overall response rate (patients with a CR plus patients with a PR), clinical benefit (CB) rate (patients with CR plus patients with PR plus patients with stable disease (SD)), progression free survival, and overall survival according to the relevant response criteria.

[2] = all cohorts administered over 30 or 45 minutes
[3] = clinical chemistry TEAE, All Patients (N = 46)
[4] = clinical chemistry TEAE, all patients
[5] = doses of 20 to 80 mg/m^2, cohorts 20/60 to 120/60
[6] = doses of 100 or 120 mg/m^2, cohorts 20/60 to 120/60
[7] = patients with normal or grade 1 or 2 values at baseline

SMILES: Cn1c(CCCCCCC(=O)NO)nc2cc(N(CCCl)CCCl)ccc21 [tinostamustine]
- DLTs in cycle 1 ([1]; 100 mg/m^2 over 60 minutes): no dose-limiting toxicities
- patients with Grade 3 and 4 thrombocytopenia in C2 and C3 leading to withdrawal ([1]; 100 mg/m^2 over 60 minutes): three
- Grade 3 TEAE ([1]; Patients (N = 46)): 28 (60.8)
- Grade 4 TEAE ([1]; Patients (N = 46)): 13 (28.2)
- Infusion site phlebitis ([1]; Patients (N = 46)): 1 (2.1)
- SAE ([1]; Patients (N = 46)): 8 (17.4)
- TEAE leading to early study discontinuation ([1]; Patients (N = 46)): 11 (23.9)
- TEAE with outcome of death ([1]; Patients (N = 46)): 0 (0)
- TEAE ([1]; Patients (N = 46), number (percent)): 42 (91.3)
- Treatment-related TEAE ([1]; Patients (N = 46), relationship possible, probable or definite): 38 (82.6)
- incidence of leukopenia ([1]; administered over 30 or 45 minutes): 16%
- incidence of leukopenia ([1]; administered over 60 minutes): 27%
- incidence of thrombocytopenia ([1]; administered over 60 minutes): 58%
- maximum tolerated dose (MTD) ([1]; administered over 60 minutes, subset of patients with MM (N=11)): 100 mg/m^2
- SAE dyspnea ([1]; all 46 patients): 2%
- SAE febrile neutropenia ([1]; all 46 patients): 2%
- SAE hypersensitivity ([1]; all 46 patients): 2%
- SAE osteomyelitis ([1]; all 46 patients): 2%
- SAE pleural effusion ([1]; all 46 patients): 2%
- SAE pneumonia ([1]; all 46 patients): 2%
- SAE sepsis ([1]; all 46 patients): 2%
- TEAE with an outcome of death (grade 5 TEAE) ([1]; all 46 patients): No patient
- anaphylactic reaction leading to study drug discontinuation ([1]; all 46 patients): 2%
- blood and lymphatic system disorders ([1]; all 46 patients): 54%
- discontinuation for adverse events (AE) ([1]; all 46 patients): 29%
- febrile neutropenia leading to study drug discontinuation ([1]; all 46 patients): 2%
- gastrointestinal (GI) disorders ([1]; all 46 patients): 52%
- general disorders and administration site conditions ([1]; all 46 patients): 50%
- grade 3/4 anemia ([1]; all 46 patients): 22%
- grade 3/4 leukopenia/WBC decreased ([1]; all 46 patients): 15% and 16%
- grade 3/4 lymphopenia ([1]; all 46 patients): 8.6%
- grade 3/4 neutropenia/neutrophil count decreased ([1]; all 46 patients): 29%
- grade 3/4 thrombocytopenia ([1]; all 46 patients): 39% and 40%
- hypersensitivity leading to study drug discontinuation ([1]; all 46 patients): 2%
- incidence of all other TEAEs ([1]; all 46 patients): < 20%
- incidence of nausea ([1]; all 46 patients): 29%
- infusion-site phlebitis events ([1]; all 46 patients): 2%
- neutropenia leading to study drug discontinuation ([1]; all 46 patients): 4%
- patients who discontinued study drug because of a TEAE ([1]; all 46 patients): 23%
- patients with a grade 3 or 4 TEAE ([1]; all 46 patients): 63%
- patients with at least 1 grade 3 TEAE ([1]; all 46 patients): 60%
- patients with at least 1 grade 4 TEAE ([1]; all 46 patients): 28%
- patients with at least 1 serious adverse event (SAE) ([1]; all 46 patients): 18%
- patients with at least one TEAE ([1]; all 46 patients): 91%
- patients with at least one study drug-related TEAE ([1]; all 46 patients): 38 patients
- pleural effusion leading to study drug discontinuation ([1]; all 46 patients): 2%
- pruritus leading to study drug discontinuation ([1]; all 46 patients): 2%
- thrombocytopenia leading to study drug discontinuation ([1]; all 46 patients): 15%
- incidence of anaemia ([1]; all 46 patients, any grade): 39%
- incidence of leukopenia/WBC decreased ([1]; all 46 patients, any grade): 21% and 22%
- incidence of neutropenia/neutrophil count decreased ([1]; all 46 patients, any grade): 29% and 28%
- incidence of thrombocytopenia/platelet count decreased ([1]; all 46 patients, any grade): 52%
- SAE thrombocytopenia ([1]; all 46 patients, grade 3, HM120/60 cohort): 2%
- incidence of anaemia [1, 2]: 37%
- incidence of thrombocytopenia [1, 2]: 47%
- thrombocytopenia leading to study drug and/or study discontinuation ([1]; all patients): 19%
- Blood alkaline phosphatase increased [1, 3]: 1 (2.1) n (%)
- Blood magnesium decreased [1, 3]: 1 (2.1) n (%)
- Blood potassium decreased/hypokalaemia [1, 3]: 5 (10.8) n (%)
- C-reactive protein increased [1, 3]: 2 (4.3) n (%)
- Hyperglycaemia [1, 3]: 1 (2.1) n (%)
- Hyperuricemia [1, 3]: 1 (2.1) n (%)
- blood creatinine increased [1, 3]: 4 (8.6) n (%)
- C-reactive protein increased [1, 4]: 4%
- blood creatinine increased [1, 4]: 9%
- blood potassium decreased/hypokalemia [1, 4]: 11%
- grade 3 hyperuricemia ([1]; considered unrelated to study drug): 2%
- DLTs that occurred ([1]; dose cohort of 120/60): Grade 4 thrombocytopenia lasting for 7 days or more; also recorded: Prolonged thrombocytopenia/toxicity resulting in the delay of the next dose administration
- incidence of grade 3 or 4 anaemia ([1]; doses of 20 to 80 mg/m^2): 8%
- incidence of anaemia [1, 5]: 25%
- incidence of grade 3/4 thrombocytopenia [1, 5]: 8%
- incidence of leukopenia [1, 5]: 17%
- incidence of neutropenia [1, 5]: 25%
- incidence of grade 3 or 4 anaemia ([1]; doses of 100 or 120 mg/m^2): 36%
- incidence of anaemia [1, 6]: 64%
- incidence of grade 3/4 thrombocytopenia [1, 6]: 71%
- incidence of leukopenia [1, 6]: 36%
- incidence of neutropenia [1, 6]: 50%
- haematological nadir occurs ([1]; human, in vivo, intravenous): 17-23 day
- patients who discontinued study drug and/or the study because of neutropenia ([1]; in vivo): Two
- patients who discontinued study drug or the study because of leukopenia ([1]; in vivo): No patient
- patients with treatment-emergent QTcF interval >500 msec ([1]; in vivo): One
- treatment-emergent ECG abnormality indicated to be clinically significant ([1]; in vivo): No patient
- MTD ([1]; lymphoma and multiple myeloma patients): 100 mg/m^2
- MTD ([1]; lymphoma subpopulation): 100 mg/m^2
- MAD ([1]; lymphoma subpopulation, administered over 1 hour): 120 mg/m^2
- patients experiencing DLTs ([1]; lymphoma, 120 mg/m^2 over 1 hour): Two out of six
- QTcF interval ([1]; one subject, MM 80/45 cohort, discontinuation visit three weeks after only dose, screening 423 msec): 677 ms
- incidence of cardiac disorders ([1]; overall): 11%
- study drug-related cardiac disorder, grade 1 palpitations ([1]; overall): 2%
- tachycardia ([1]; overall): 4%
- treatment-emergent grade 4 clinical chemistry abnormality, hyperuricemia [1, 7]: 2%
- treatment-emergent shift to grade 3 aspartate aminotransferase increased [1, 7]: 2%
- treatment-emergent shift to grade 3 hypoalbuminemia [1, 7]: 2%
- incidence of neutropenia ([1]; shorter infusion times): 16%
- activity against lymphoma (lymphoma): potent activity
- response (patients with HL; 1 patient with refractory HL treated with 120 m/m^2 over 6 cycles): achieved a CR
- patients having a response from SD to CR (patients with HL; 10 patients with HL): 70%
